Earlier results on three compounds are cited in article PMC11590026, “Synthesis, enzyme inhibition, and docking studies of new schiff bases of disalicylic acid methylene-based derivatives as dual-target antibacterial agents” (Frontiers in Chemistry, 2024).

Structures are written as SMILES. In brackets after ≈: the same amount, converted by molar mass.

For one data set, the target named is S. aureus DNA gyrase. Set-up: method as in Alzahrani et al., 2022. To be noted: ref Alzahrani et al., 2022; read-out: S. aureus DNA gyrase inhibitor IC50; cited from earlier work.
For data set [1], the target named is S. aureus topoisomerase IV. Particulars: internal standard value stated in the supplementary method; cited from earlier work.
The subject of another data set is S. aureus. Set-up: method as in Al-Wahaibi et al., 2024. To be noted: ref Al-Wahaibi et al., 2024; cited from earlier work.
Another data set concerns E. coli. On the set-up: method as in Al-Wahaibi et al., 2024. To be noted: ref Al-Wahaibi et al., 2024; cited from earlier work.
For a further data set, the system named is P. aeruginosa. On the set-up: method as in Al-Wahaibi et al., 2024. Particulars: ref Al-Wahaibi et al., 2024; cited from earlier work.
A further data set deals with B. subtilis. Set-up: method as in Al-Wahaibi et al., 2024. To be noted: ref Al-Wahaibi et al., 2024; cited from earlier work.
A further data set has as its target Topoisomerase IV. Particulars: earlier work; ref Al-Wahaibi et al., 2024; cited from earlier work.

`CCN(CC)S(=O)(=O)c1ccc2c(c1)C1(C(=O)N2)C(C#N)=COC(c2ccccc2)=C1C(C)=O` (centres unmarked) [I]: the IC50 (commonly the point on the concentration scale where inhibition reaches its midpoint) on S. aureus DNA gyrase was 18.1 µM.

Consider `CO[C@@H]1[C@@H](OC(N)=O)[C@@H](O)[C@H](Oc2ccc3c(O)c(NC(=O)c4ccc(O)c(CC=C(C)C)c4)c(=O)oc3c2C)OC1(C)C` [Novobiocin], for which the IC50 in data set [1] was 26.7 µM.

`COc1ccccc1/C=N/NC(=O)c1cc(Cc2ccc(O)c(C(=O)N/N=C/c3ccccc3OC)c2)ccc1O` [Compound 5h]: the minimal inhibitory concentration (MIC) (as a rule, the smallest concentration in the dilution series that meets the test's criterion for growth inhibition) with S. aureus is 0.030 µg/mL (≈ 0.0543 µM); in the data set with E. coli, 0.065 µg/mL (≈ 0.118 µM); in the data set on P. aeruginosa, 0.060 µg/mL (≈ 0.109 µM); with B. subtilis, 0.050 µg/mL (≈ 0.0905 µM). In the data set on B. subtilis, the “Times less potent/effective than ciprofloxacin (MIC)” value is listed as “five times less potent than ciprofloxacin”. At Topoisomerase IV, the IC50 is 3.5 µM.
